In patent publication US20250255961A1, “METHODS TO STIMULATE IMMUNE RESPONSES TO MUTANT RAS USING NUCLEATED CELLS” (STEMCELL TECHNOLOGIES CANADA INC., priority 2020, published 2025):
“Also recorded” adds a separate entry of the source.

Tests used:
[1] = tested on: K-Ras G12D responder T cells; test: IFN-γ ELISPOT: peptide-loaded HLA-A*11+ human PBMCs co-cultured with K-Ras G12D responder T cells; format: cell-based, transgenic mice; settings: for IFN-γ expressing by K-Ras-G12D responder T cells upon co-culture: Example 1, FIG. 1, vehicle control DMSO, overnight 37° C.; for IFN-γ expressing responder T cells upon co-culture: PBMCs incubated with 100 μM SLP at room temperature without SQZ (Endo-G12D); for IFN-γ secretion by K-Ras-G12D responder T cells upon co-culture: Example 3, FIG. 3, HLA-A*11+ human PBMCs (donor 339) SQZ-loaded with 100 μM SLP
Procedure: (§1) Human PBMCs from HLA-A*11^+ donor were prepared at a density of 10×10^6/mL, and SQZ-processed at room temperature through a constriction of 4.5 μm width, 10 μm length and 70 μm depth at 60 psi with 100 μM of the respective K-Ras G12D synthetic long peptide (either G12D^1-16, G12D^2-19, G12D^2-22, G12D^2-29) or with vehicle control (DMSO) in RPMI medium. Following SQZ-processing, the SQZ-loaded PBMCs were centrifuged, and the supernatant was discarded. The cells were subsequently washed once in R10 medium (RPMI+10% FCS+1% Pen/Strep), then washed twice in CTL medium (supplemented with 1% glutamine), before resuspension in fresh CTL medium (supplemented with 1% glutamine).
(§2) 2×10^5 SQZ-loaded PBMCs were then placed in co-culture with 5×10^4 K-Ras G12D responder T cells (generated in transgenic mice) in an IFN-γ ELISPOT plate. As a positive control, 10 μM K-Ras G12D^7-16 peptide containing the minimal epitope was added directly to untreated PBMCs and responder cells in the ELISPOT plate (peptide spike). The plate was incubated overnight at 37° C. and then developed/quantified according to manufacturer's instructions.
as §1, with “and SQZ processed” for “and SQZ-processed”, “K-Ras” for “K-Ras G12D”, “(either wild type K-Ras^1-16 or K-Ras-G12D^1-16)” for “(either G12D^1-16, G12D^2-19, G12D^2-22, G12D^2-29)”, “SQZ-loaded PMBCs” for “SQZ-loaded PBMCs”, “glutamine). […]” for “glutamine).”
as §1, with “donor (donor 339)” for “donor”, “10×10^6/mL, SQZ processed” for “10×10^6/mL, and SQZ-processed”, “K-Ras” for “K-Ras G12D”, “(either wild type K-Ras^2-22 or K-Ras G12D^2-22)” for “(either G12D^1-16, G12D^2-19, G12D^2-22, G12D^2-29)”, “SQZ-loaded PMBCs” for “SQZ-loaded PBMCs”, “glutamine). […]” for “glutamine).”
2×10^5 of either the SQZ-loaded PBMCs (SQZ-G12D) or SLP-incubated PBMCs (Endo-G12D), or an equal volume of the fluid phase solution (FF-G12D) were then placed in co-culture with 5×10^4 K-Ras G12D responder T cells (generated in transgenic mice) in an IFN—Y ELISPOT plate. As a positive control, 10 μM K-Ras G12D^7-16 peptide containing the minimal epitope was added directly to untreated PBMCs and responder cells in the ELISPOT plate (spike). 10 μM wild type K-Ras^7-16 peptide was added to PBMCs and responder as another […] (spike). The plate was incubated overnight at 37° C. and then developed/quantified according to manufacturer's instructions.

[2] = tested on: K-Ras G12V responder T cells; test: IFN-γ ELISPOT: peptide-loaded HLA-A*11+ human PBMCs co-cultured with K-Ras G12V responder T cells; format: cell-based
[3] = tested on: K-Ras G12V responder T cells; test: as above; format: cell-based; settings: for IFN-γ secretion by K-Ras-G12V responder T cells upon co-culture: Example 4, FIG. 4, HLA-A*11+ human PBMCs (donor 296) SQZ-loaded with 100 μM SLP; for IFN-γ expressing K-Ras-G12V responder T cells upon co-culture: HLA-A*11+ human PBMCs SQZ-loaded with 100 μM SLP
Procedure: as §1, with “donor (donor 296)” for “donor”, “10×10^6/mL, SQZ processed” for “10×10^6/mL, and SQZ-processed”, “K-Ras” for “K-Ras G12D”, “peptide (G12V^1-16, G12V^2-19)” for “peptide (either G12D^1-16, G12D^2-19, G12D^2-22, G12D^2-29)”, “SQZ-loaded PMBCs” for “SQZ-loaded PBMCs”
as §2, with “G12V” for “G12D”, “G12V^7-16” for “G12D^7-16”
as §1, with “10×10^6/mL, SQZ processed” for “10×10^6/mL, and SQZ-processed”, “constriction with” for “constriction of”, “K-Ras” for “K-Ras G12D”, “peptide (K-Ras G12V^3-17, K-Ras G12V^3-42)” for “peptide (either G12D^1-16, G12D^2-19, G12D^2-22, G12D^2-29)”, “medium. An irrelevant synthetic long peptide (HPV-E7.6) was used as a negative control.” for “medium.”, “SQZ-loaded PMBCs” for “SQZ-loaded PBMCs”
as §1, with “of 10× 10^6/mL, SQZ processed” for “of 10×10^6/mL, and SQZ-processed”, “K-Ras” for “K-Ras G12D”, “peptide (wild type K-Ras^1-16, G12V^1-16, wild type K-Ras^2-22, or G12V^2-22)” for “peptide (either G12D^1-16, G12D^2-19, G12D^2-22, G12D^2-29)”, “SQZ-loaded PMBCs” for “SQZ-loaded PBMCs”
Human PBMCs from HLA-A*11^+ donor were prepared at a density of 10×10^6/mL, SQZ processed at room temperature through a constriction of 4.5 μm width, 10 μm length and 70 μm depth at 60 psi with 100 μM of a single K-Ras synthetic long peptide (G12V^1-16 or G12V^2-19), or a combination of two K-Ras synthetic long peptides which are each at 100 μM (G12V^1-16 plus G12D^1-16 or G12V^2-19 plus G12D^1-16) or vehicle control (DMSO) in RPMI medium. Following SQZ-processing, the SQZ-loaded PMBCs were centrifuged, and the supernatant was discarded. The cells were subsequently washed once in R10 medium (RPMI+10% FCS+1% Pen/Strep), then washed twice in CTL medium (supplemented with 1% glutamine), before resuspension in fresh CTL medium (supplemented with 1% glutamine). […]

[4] = HLA-A*11+ human PBMCs SQZ-loaded with 100 μM SLP
[5] = Example 2, FIG. 2, HLA-A*11+ human PBMCs SQZ-loaded with 100 μM SLP, compared to vehicle control
[6] = Example 8, FIG. 8, HLA-A*11+ human PBMCs SQZ-loaded with one SLP or a combination of two SLPs, each at 100 μM
[7] = Example 6, FIG. 6, compared to vehicle control

## MTEYKLVVVGADGVGK [G12D^1-16, K-Ras G12D synthetic long peptide, residues 1-16]
[1]; [4]
  IFN-γ expressing by K-Ras-G12D responder T cells upon co-culture: increased amount; also recorded: significant increases
[1]; [5]
  IFN-γ expressing K-Ras-G12D responder T cells upon co-culture: significant increases
[1]; Example 2, FIG. 2, HLA-A*11+ human PBMCs SQZ-loaded with 100 μM SLP, compared to vehicle control, listed as K-Ras-G12D^1-16
  IFN-γ expressing K-Ras-G12D responder T cells upon co-culture: increased amount
[1]; Example 7, FIG. 7, HLA-A*11+ human PBMCs SQZ-loaded with one SLP or a combination of two SLPs, each at 100 μM
  IFN-γ expressing K-Ras-G12D responder T cells upon co-culture: significant increases
[1]; Example 10, FIG. 10, HLA-A*11+ human PBMCs SQZ-loaded with 100 μM SLP (SQZ-G12D), listed as K-Ras-G12D^1-16
  IFN-γ expressing K-Ras G12D responder T cells upon co-culture: significant increases; also recorded: increased amount
[1]; Example 10
  IFN-γ expressing responder T cells upon co-culture: did not result in increase

## TEYKLVVVGADGVGKSAL [G12D^2-19, K-Ras G12D synthetic long peptide, residues 2-19]
[1]; [4]
  IFN-γ expressing by K-Ras-G12D responder T cells upon co-culture: increased amount; also recorded: significant increases

## VVVGADGVGK [K-Ras G12D^7-16, positive control peptide spike, reference compound]
[1]; Example 10, 10 μM peptide added directly to untreated PBMCs and responder cells (peptide spike, positive control)
  IFN-γ expressing K-Ras G12D responder T cells upon co-culture: significant increases

## TEYKLVVVGAVGVGKSAL [G12V^2-19, K-Ras G12V synthetic long peptide, residues 2-19]
[2]; [6]
  IFN-γ expressing K-Ras-G12V responder T cells upon co-culture: significant increases
[3]
  IFN-γ secretion by K-Ras-G12V responder T cells upon co-culture: significantly increased
[3]; listed as K-Ras-G12V^2-19
  IFN-γ secretion by K-Ras-G12V responder T cells upon co-culture: increased amount

## EYKLVVVGAVGVGKS [G12V^3-17, K-Ras G12V synthetic long peptide, residues 3-17]
[2]; Example 5, FIG. 5, HLA-A*11+ human PBMCs SQZ-loaded with 100 μM SLP, listed as K-Ras-G12V^3-17
  IFN-γ expressing K-Ras-G12V responder T cells upon co-culture: increased amount
[3]; Example 5, FIG. 5
  IFN-γ expressing K-Ras-G12V responder T cells upon co-culture: significant increases

## TEYKLVVVGADGVGKSALTIQLIQNHFV [G12D^2-29, K-Ras G12D synthetic long peptide, residues 2-29]
[1]; [4]
  IFN-γ expressing by K-Ras-G12D responder T cells upon co-culture: increased amount; also recorded: significant increases
[1]; Example 10, FIG. 10, HLA-A*11+ human PBMCs SQZ-loaded with 100 μM SLP (SQZ-G12D), listed as K-Ras-G12D^2-29
  IFN-γ expressing K-Ras G12D responder T cells upon co-culture: significant increases; also recorded: increased amount
[1]; Example 10
  IFN-γ expressing responder T cells upon co-culture: did not result in increase

## MTEYKLVVVGAVGVGK [G12V^1-16, K-Ras G12V synthetic long peptide, residues 1-16]
[2]; [6]
  IFN-γ expressing K-Ras-G12V responder T cells upon co-culture: significant increases
[3]
  IFN-γ secretion by K-Ras-G12V responder T cells upon co-culture: significantly increased
[3]; listed as K-Ras-G12V^1-16
  IFN-γ secretion by K-Ras-G12V responder T cells upon co-culture: increased amount
[3]; [7]
  IFN-γ expressing K-Ras-G12V responder T cells upon co-culture: significant increases
[3]; Example 6, FIG. 6, compared to vehicle control, listed as K-Ras-G12V^1-16
  IFN-γ expressing K-Ras-G12V responder T cells upon co-culture: increased amount

## wild type K-Ras^1-16: wild type K-Ras synthetic long peptide, residues 1-16; mutation-specificity comparator (MTEYKLVVVGAGGVGK; UniProt P01116 1-16, looked up, fragment) [reference compound]
[1]; [5]
  IFN-γ expressing K-Ras-G12D responder T cells upon co-culture: did not elicit increases
[3]; [7]
  IFN-γ expressing K-Ras-G12V responder T cells upon co-culture: did not elicit increases

## TEYKLVVVGADGVGKSALTIQ [G12D^2-22, K-Ras G12D synthetic long peptide, residues 2-22]
[1]; [4]
  IFN-γ expressing by K-Ras-G12D responder T cells upon co-culture: increased amount; also recorded: significant increases
[1]; compared to vehicle control
  IFN-γ secretion by K-Ras-G12D responder T cells upon co-culture: significantly increased
[1]; compared to vehicle control, listed as K-Ras-G12D^2-22
  IFN-γ secretion by K-Ras-G12D responder T cells upon co-culture: increased amount
